# Residues, ends and D or L forms follow the SMILES beside them. *: point of attachment. AMC = Cc1cc(=O)oc2cc(N*)ccc12; Boc = CC(C)(C)OC(=O)*
# What was measured:
# Assay in all cases: fluorogenic AMC release, Michaelis-Menten fit
# Type in all cases: biochemical, Blattella germanica
# Conditions in all cases: read-out: Substrate Km (μM) / QAR / Trypsin; 50 mM Tris-HCl pH 8, 0.2% NP40, 1.5 mM CaCl2
# E2 = tested on: E2
# E3 = tested on: E3
# E1 = tested on: E1
smiles,measurement,setting,value
"Cc1cc(=O)oc2cc(NC(=O)[C@H](CCCNC(=N)N)NC(=O)[C@H](C)NC(=O)[C@H](CCC(N)=O)NC(=O)OC(C)(C)C)ccc12 [QAR, Boc-Glutamine-Alanine-Arginine (QAR)-aminomethylcoumarin] (Boc-Gln-Ala-Arg-{AMC})",Km,E2,2 ± 0.3 µM
same,Km,E3,3 ± 0.3 µM
same,Km,E1,3 ± 0.8 µM

# Reference: publication PMC5501740 (Clinical and experimental allergy : journal of the British …, 2017)
